Here are results for 34 compounds from patent publication US20130338106A1, “COMPOUNDS INHIBITING LEUCINE-RICH REPEAT KINASE ENZYME ACTIVITY” (priority 2011, published 2013).

In the test the target is T1, LRRK2 G2019S mutant kinase (Homo sapiens, UniProt Q5S007, G2019S).
T1 construct: GST; purchased Invitrogen PV4882
Description: LRRK2 G2019S LanthaScreen TR-FRET kinase assay. The class given is biochemical. Conditions: LRRK2 G2019S GST-tagged protein, 100 μM ATP, LRRKtide substrate; read-out: IC50 (potency). The protocol: Activity of compounds against LRRK2 G2019S mutant kinase function was tested in a LANTHAScreen® assay as follows: Compounds were diluted in 100% DMSO to the desired test concentrations in white, low-volume 384-well plates (PerkinElmer ProxiPlate® PN: 6008280). TR-FRET kinase reactions (10 μL) were performed with 75 nM Fluorescein-ERM (LRRKtide, Invitrogen, PN:PV4901) substrate in a final assay buffer containing 100 μM ATP and 2 mM DTT diluted in commercially available Kinase Buffer S (Invitrogen PN: PV5213). The final solvent concentration in the assay was 1% DMSO. Reactions were initiated with the addition of 10 ng/well of LRRK2 02019S, GST-tagged protein (Invitrogen PN: PV4882). After incubation of the foil sealed reaction plates at room temperature with low speed mixing for 1 hour, the kinase reaction was stopped and the amount of substrate phosphorylation was detected by addition of 10 μL of 10 mM EDTA and 2 nM Tb-anti-pERM (pLRRKtide antibody, Invitrogen, PN: PV4898) antibody in TR-FRET dilution buffer (Invitrogen PN: PV3574). After a 30 minute incubation at room temperature with low speed mixing, foil seals were removed and measurements were obtained on a PerkinElmer EnVision with excitation 340 nm, emission 520 nm (channel 1): 495 nm (channel 2) settings. Generation of raw data and workup of data to derive the IC50 (potency) and maximal inhibition at concentrations tested were performed using Merck's Assay Data Analyzer (ADA) software.
(Time-resolved FRET reads energy transfer from a long-lived donor to a nearby acceptor.)

Structures are written as SMILES.

T1 sequence (Q5S007 whole entry G2019S): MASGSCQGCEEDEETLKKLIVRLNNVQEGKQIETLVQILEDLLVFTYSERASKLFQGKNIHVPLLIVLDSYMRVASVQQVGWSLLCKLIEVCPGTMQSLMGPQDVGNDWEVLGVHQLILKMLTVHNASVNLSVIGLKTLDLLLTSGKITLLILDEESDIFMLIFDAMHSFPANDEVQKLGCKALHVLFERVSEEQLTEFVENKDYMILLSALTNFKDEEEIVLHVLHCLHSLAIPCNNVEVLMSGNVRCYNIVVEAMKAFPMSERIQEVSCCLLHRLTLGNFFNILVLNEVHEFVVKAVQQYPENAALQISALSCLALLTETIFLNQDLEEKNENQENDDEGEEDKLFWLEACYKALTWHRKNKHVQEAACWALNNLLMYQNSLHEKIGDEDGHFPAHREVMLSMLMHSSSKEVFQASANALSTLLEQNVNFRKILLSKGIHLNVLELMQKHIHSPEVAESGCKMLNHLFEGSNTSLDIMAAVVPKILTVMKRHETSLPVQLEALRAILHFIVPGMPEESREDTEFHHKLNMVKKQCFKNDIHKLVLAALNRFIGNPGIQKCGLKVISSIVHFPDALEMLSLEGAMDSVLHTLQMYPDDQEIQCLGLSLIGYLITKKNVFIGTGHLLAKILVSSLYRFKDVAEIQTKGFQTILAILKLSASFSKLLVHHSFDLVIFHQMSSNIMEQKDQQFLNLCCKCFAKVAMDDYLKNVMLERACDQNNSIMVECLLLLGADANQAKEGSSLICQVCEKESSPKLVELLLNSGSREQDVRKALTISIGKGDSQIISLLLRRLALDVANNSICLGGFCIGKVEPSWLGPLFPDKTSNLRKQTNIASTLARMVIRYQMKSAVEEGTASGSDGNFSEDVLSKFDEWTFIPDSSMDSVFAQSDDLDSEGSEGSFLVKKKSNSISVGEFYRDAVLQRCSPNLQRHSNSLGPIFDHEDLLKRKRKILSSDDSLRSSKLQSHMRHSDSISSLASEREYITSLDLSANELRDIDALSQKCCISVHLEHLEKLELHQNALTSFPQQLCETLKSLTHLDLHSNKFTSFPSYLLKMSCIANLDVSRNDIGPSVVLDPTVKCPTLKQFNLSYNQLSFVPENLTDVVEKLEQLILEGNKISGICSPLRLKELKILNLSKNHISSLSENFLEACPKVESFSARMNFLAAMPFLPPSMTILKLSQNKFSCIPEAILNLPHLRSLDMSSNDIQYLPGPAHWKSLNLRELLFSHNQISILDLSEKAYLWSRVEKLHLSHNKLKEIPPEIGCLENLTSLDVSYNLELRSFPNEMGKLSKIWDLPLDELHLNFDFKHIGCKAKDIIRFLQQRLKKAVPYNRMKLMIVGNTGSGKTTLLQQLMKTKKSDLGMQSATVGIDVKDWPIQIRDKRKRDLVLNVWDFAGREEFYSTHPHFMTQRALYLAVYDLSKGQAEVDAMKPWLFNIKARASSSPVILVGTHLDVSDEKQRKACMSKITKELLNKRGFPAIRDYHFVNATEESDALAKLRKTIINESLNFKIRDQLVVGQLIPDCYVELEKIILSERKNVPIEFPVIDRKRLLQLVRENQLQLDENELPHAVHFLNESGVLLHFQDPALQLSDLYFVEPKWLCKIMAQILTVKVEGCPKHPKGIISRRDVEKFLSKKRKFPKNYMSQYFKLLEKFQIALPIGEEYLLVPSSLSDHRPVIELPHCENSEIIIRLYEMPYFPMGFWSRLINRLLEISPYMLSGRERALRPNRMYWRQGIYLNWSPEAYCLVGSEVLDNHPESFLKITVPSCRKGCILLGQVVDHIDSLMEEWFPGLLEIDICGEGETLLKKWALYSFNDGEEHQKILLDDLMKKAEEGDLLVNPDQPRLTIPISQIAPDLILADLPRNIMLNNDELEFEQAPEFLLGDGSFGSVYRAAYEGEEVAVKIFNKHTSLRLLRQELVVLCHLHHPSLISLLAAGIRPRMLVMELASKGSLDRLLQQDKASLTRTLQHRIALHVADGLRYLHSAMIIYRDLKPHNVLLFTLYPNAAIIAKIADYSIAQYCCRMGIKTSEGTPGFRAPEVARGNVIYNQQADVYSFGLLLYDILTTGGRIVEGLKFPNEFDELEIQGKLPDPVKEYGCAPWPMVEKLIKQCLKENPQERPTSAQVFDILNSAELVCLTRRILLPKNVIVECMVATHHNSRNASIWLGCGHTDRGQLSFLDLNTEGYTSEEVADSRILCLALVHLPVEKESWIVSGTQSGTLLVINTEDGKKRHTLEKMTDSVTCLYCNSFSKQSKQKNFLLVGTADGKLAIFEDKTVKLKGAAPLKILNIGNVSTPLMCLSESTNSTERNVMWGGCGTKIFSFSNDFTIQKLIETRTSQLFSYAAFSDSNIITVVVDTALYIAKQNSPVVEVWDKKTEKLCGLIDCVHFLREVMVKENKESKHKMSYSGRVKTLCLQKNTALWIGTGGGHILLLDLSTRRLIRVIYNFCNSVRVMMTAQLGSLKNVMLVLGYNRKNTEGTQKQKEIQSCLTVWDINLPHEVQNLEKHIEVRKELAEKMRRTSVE

Regarding `CS(=O)(=O)c1sc(-c2cc[nH]n2)c2c1C(=O)CCC2` [Example 2, 3-(Methylsulfonyl)-1-(1H-pyrazol-3-yl)-6,7-dihydro-2-benzothiophen-4(5H)-one], the IC50 (in general, the concentration needed to halve the response being measured) was 3500 nM. Under `O=C1CCCc2c(-c3cc[nH]n3)sc(SC3CCCC3)c21` [Example 3, 3-(Cyclopentylsulfanyl)-1-(1H-pyrazol-3-yl)-6,7-dihydro-2-benzothiophen-4(5H)-one] stands 430 nM. Under `O=C1CCCc2c(-c3cc[nH]n3)sc(NC3CCCC3)c21` [Example 4, 3-(Cyclopentylamino)-1-(1H-pyrazol-3-yl)-6,7-dihydro-2-benzothiophen-4(5H)-one] stands 160 nM. Under `CSc1sc(-c2cc[nH]n2)c2c1C(=O)CC(C)(C)C2` [Example 5, 6,6-Dimethyl-3-(methylsulfanyl)-1-(1H-pyrazol-3-yl)-6,7-dihydro-2-benzothiophen-4(5H)-one] stands 230 nM; under `CC1(C)CC(=O)c2c(S(C)(=O)=O)sc(-c3cc[nH]n3)c2C1` [Example 6, 6,6-Dimethyl-3-(methylsulfonyl)-1-(1H-pyrazol-3-yl)-6,7-dihydro-2-benzothiophen-4(5H)-one], 2800 nM; under `CCSc1sc(-c2cc[nH]n2)c2c1C(=O)CC(C)(C)C2` [Example 8, 3-(Ethylsulfanyl)-6,6-dimethyl-1-(1H-pyrazol-3-yl)-6,7-dihydro-2-benzothiophen-4(5H)-one], 180 nM. As for `CC(C)Sc1sc(-c2cc[nH]n2)c2c1C(=O)CC(C)(C)C2` [Example 9, 6,6-Dimethyl-3-(propan-2-ylsulfanyl)-1-(1H-pyrazol-3-yl)-6,7-dihydro-2-benzothiophen-4(5H)-one], the IC50 came to 140 nM. Under `CC1(C)CC(=O)c2c(SCCO)sc(-c3cc[nH]n3)c2C1` [Example 10, 3-[(2-Hydroxyethyl)sulfanyl]-6,6-dimethyl-1-(1H-pyrazol-3-yl)-6,7-dihydro-2-benzothiophen-4(5H)-one] stands 240 nM. Take `CC1(C)CC(=O)c2c(SCCCO)sc(-c3cc[nH]n3)c2C1` [Example 11, 3-[(3-Hydroxypropyl)sulfanyl]-6,6-dimethyl-1-(1H-pyrazol-3-yl)-6,7-dihydro-2-benzothiophen-4(5H)-one]: the IC50 came out at 200 nM.

Consider `COCCSc1sc(-c2cc[nH]n2)c2c1C(=O)CC(C)(C)C2` [Example 12, 3-[(2-Methoxyethyl)sulfanyl]-6,6-dimethyl-1-(1H-pyrrazol-3-yl)-6,7-dihydro-2-henzothiophen-4(5H)-one], for which the IC50 was 290 nM. In the case of `CN(C)CCSc1sc(-c2cc[nH]n2)c2c1C(=O)CC(C)(C)C2` [Example 13, 3-{[2-(Dimethylamino)ethyl]sulfanyl}-6,6-dimethyl-1-(1H-pyrazol-3-yl)-6,7-dihydro-2-benzothiophen-4(5H)-one], the IC50 came to 520 nM. As to `CC1(C)CC(=O)c2c(SCc3ccccc3)sc(-c3cc[nH]n3)c2C1` [Example 14, 3-(Benzylsulfanyl)-6,6-dimethyl-1-(1H-pyrazol-3-yl)-6,7-dihydro-2-benzothiophen-4(5H)-one], the IC50 worked out at 860 nM. Under `CC1(C)CC(=O)c2c(SCc3ccco3)sc(-c3cc[nH]n3)c2C1` [Example 15, 3-[(Furan-2-ylmethyl)sulfanyl]-6,6-dimethyl-1-(1H-pyrazol-3-yl)-6,7-dihydro-2-benzothiophen-4(5H)-one] stands 450 nM.

For the compound `CC(O)CSc1sc(-c2cc[nH]n2)c2c1C(=O)CC(C)(C)C2` (stereo not shown) [Example 16, 3-[(2-Hydroxypropyl)sulfanyl]-6,6-dimethyl-1-(1H-pyrazol-3-yl)-6,7-dihydro-2-benzothiophen-4(5H)-one], the IC50 is 220 nM.

For the compound `CC1(C)CC(=O)c2c(SCCc3ccccc3)sc(-c3cc[nH]n3)c2C1` [Example 17, 6,6-Dimethyl-3-[(2-phenylethyl)sulfanyl]-1-(1H-pyrazol-3-yl)-6,7-dihydro-2-benzothiophen-4(5H)-one], the IC50 was determined as 450 nM. Consider `CCC(C)CSc1sc(-c2cc[nH]n2)c2c1C(=O)CC(C)(C)C2` (stereo not shown) [Example 18, 6,6-Dimethyl-3-[(2-methylbutyl)sulfanyl]-1-(1H-pyrazol-3-yl)-6,7-dihydro-2-benzothiophen-4(5H)-one], for which the IC50 was 220 nM. Under `CC1(C)CC(=O)c2c(SCCCCCCO)sc(-c3cc[nH]n3)c2C1` [Example 19, 3-[(6-Hydroxyhexyl)sulfanyl]-6,6-dimethyl-1-(1H-pyrazol-3-yl)-6,7-dihydro-2-benzothiophen-4(5H)-one] stands 60 nM; under `CC1(C)CC(=O)c2c(SCCCCCCN=[N+]=[N-])sc(-c3cc[nH]n3)c2C1` [Example 20, 3-[(6-Azidohexyl)sulfanyl]-6,6-dimethyl-1-(1H-pyrazol-3-yl)-6,7-dihydro-2-benzothiophen-4(5H)-one], 490 nM; under `CC1(C)CC(=O)c2c(SCCCN=[N+]=[N-])sc(-c3cc[nH]n3)c2C1` [Example 21, 3-[(3-Azidopropyl)sulfanyl]-6,6-dimethyl-1-(1H-pyrazol-3-yl)-6,7-dihydro-2-benzothiophen-4(5H)-one], 200 nM. Under `CC1(C)CC(=O)c2c(SCC3CC3)sc(-c3cc[nH]n3)c2C1` [Example 22, 3-[(Cyclopropylmethyl)sulfanyl]-6,6-dimethyl-1-(1H-pyrazol-3-yl)-6,7-dihydro-2-benzothiophen-4(5H)-one] stands 130 nM; under `CC(=O)NCCCCCCSc1sc(-c2cc[nH]n2)c2c1C(=O)CC(C)(C)C2` [Example 23, N-(6-{[5,5-Dimethyl-7-oxo-3-(1H-pyrazol-3-yl)-4,5,6,7-tetrahydro-2-benzothiophen-1-yl]sulfanyl}hexyl)acetamide], 180 nM. For the compound `CC1(C)CC(=O)c2c(SCCCCCCN)sc(-c3cc[nH]n3)c2C1` [Example 24, 3-[(6-Aminohexyl)sulfanyl]-6,6-dimethyl-1-(1H-pyrazol-3-yl)-6,7-dihydro-2-benzothiophen-4(5H)-one], the IC50 came to 70 nM. As to `CC1(C)CC(=O)c2c(SCC(O)CO)sc(-c3cc[nH]n3)c2C1` (stereo not shown) [Example 25, 3-[(2,3-Dihydroxypropyl)sulfanyl]-6,6-dimethyl-1-(1H-pyrazol-3-yl)-6,7-dihydro-2-benzothiophen-4(5H)-one], the IC50 was determined as 740 nM. With `CC(C)CSc1sc(-c2cc[nH]n2)c2c1C(=O)CC(C)(C)C2` [Example 26, 6,6-Dimethyl-3-[(2-methylpropyl)sulfanyl]-1-(1H-pyrazol-3-yl)-6,7-dihydro-2-benzothiophen-4(5H)-one], the IC50 was found to be 120 nM. For `CCCCSc1sc(-c2cc[nH]n2)c2c1C(=O)CC(C)(C)C2` [Example 27, 3-(Butylsulfanyl)-6,6-dimethyl-1-(1H-pyrazol-3-yl)-6,7-dihydro-2-benzothiophen-4(5H)-one], the IC50 stood at 140 nM. Under `CCCSc1sc(-c2cc[nH]n2)c2c1C(=O)CC(C)(C)C2` [Example 28, 6,6-Dimethyl-3-(propylsulfanyl)-1-(1H-pyrazol-3-yl)-6,7-dihydro-2-benzothiophen-4(5H)-one] stands 160 nM; under `CC1(C)CC(=O)c2c(SCC(F)(F)F)sc(-c3cc[nH]n3)c2C1` [Example 29, 6,6-Dimethyl-1-(1H-pyrazol-3-yl)-3-[(2,2,2-trifluoroethyl)sulfanyl]-6,7-dihydro-2-benzothiophen-4(5H)-one], 250 nM.

In the case of `CCC(C)Sc1sc(-c2cc[nH]n2)c2c1C(=O)CC(C)(C)C2` (stereo not shown) [Example 30, 3-(Butan-2-ylsulfanyl)-6,6-dimethyl-1-(1H-pyrazol-3-yl)-6,7-dihydro-2-benzothiophen-4(5H)-one], the IC50 came to 180 nM. Under `CC1(C)CC(=O)c2c(SCC[Si](C)(C)C)sc(-c3cc[nH]n3)c2C1` [Example 31, 6,6-Dimethyl-1-(1H-pyrazol-3-yl)-3-{[2-(trimethylsilyl)ethyl]sulfanyl}-6,7-dihydro-2-benzothiophen-4(5H)-one] stands 1900 nM; under `Cc1nnc(Sc2sc(-c3cc[nH]n3)c3c2C(=O)CC(C)(C)C3)s1` [Example 32, 6,6-Dimethyl-3-[(5-methyl-1,3,4-thiadiazol-2-yl)sulfanyl]-1-(1H-pyrazol-3-yl)-6,7-dihydro-2-benzothiophen-4(5H)-one], 4000 nM. Under `CC1(C)CC(=O)c2c(SCCCCl)sc(-c3cc[nH]n3)c2C1` [Example 33, 3-[(3-Chloropropyl)sulfanyl]-6,6-dimethyl-1-(1H-pyrazol-3-yl)-6,7-dihydro-2-benzothiophen-4(5H)-one] stands 120 nM; under `CCCCCCSc1sc(-c2cc[nH]n2)c2c1C(=O)CC(C)(C)C2` [Example 34, 3-(Hexylsulfanyl)-6,6-dimethyl-1-(1H-pyrazol-3-yl)-6,7-dihydro-2-benzothiophen-4(5H)-one], 1300 nM.

Consider `CCCNc1sc(-c2cc[nH]n2)c2c1C(=O)CC(C)(C)C2` [Example 35, 6,6-Dimethyl-3-(propylamino)-1-(1H-pyrazol-3-yl)-6,7-dihydro-2-benzothiophen-4(5H)-one], for which the IC50 turned out to be 150 nM. The same measure for `CNc1sc(-c2cc[nH]n2)c2c1C(=O)CC(C)(C)C2` [Example 36, 6,6-Dimethyl-3-(methylamino)-1-(1H-pyrazol-3-yl)-6,7-dihydro-2-benzothiophen-4(5H)-one]: 760 nM.
